Reference: ChEMBL document CHEMBL5291721, “A preclinical secondary pharmacology resource illuminates target-adverse drug reaction associations of marketed drugs” (Nat Commun, 2023)
Where a SMILES comes first, the peptide text is derived from it.

Key:
[1] = target: T1, Equilibrative nucleoside transporter 1 (Homo sapiens, UniProt Q99808)
T1 sequence (Q99808 whole entry): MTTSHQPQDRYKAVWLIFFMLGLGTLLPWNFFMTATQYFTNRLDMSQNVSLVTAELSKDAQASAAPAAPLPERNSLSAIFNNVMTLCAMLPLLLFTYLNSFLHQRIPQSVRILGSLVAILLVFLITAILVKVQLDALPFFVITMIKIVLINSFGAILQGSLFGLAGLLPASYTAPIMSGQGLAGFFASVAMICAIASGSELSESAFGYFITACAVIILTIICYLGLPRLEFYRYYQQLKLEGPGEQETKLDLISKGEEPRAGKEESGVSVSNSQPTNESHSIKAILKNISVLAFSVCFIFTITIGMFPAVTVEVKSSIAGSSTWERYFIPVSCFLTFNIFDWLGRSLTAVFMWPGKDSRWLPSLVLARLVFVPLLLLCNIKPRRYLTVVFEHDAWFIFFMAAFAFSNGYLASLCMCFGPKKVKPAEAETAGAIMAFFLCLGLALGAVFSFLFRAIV

[2] = target: T2, Alpha-1A adrenergic receptor (Homo sapiens, UniProt P35348)
T2 sequence (P35348 whole entry): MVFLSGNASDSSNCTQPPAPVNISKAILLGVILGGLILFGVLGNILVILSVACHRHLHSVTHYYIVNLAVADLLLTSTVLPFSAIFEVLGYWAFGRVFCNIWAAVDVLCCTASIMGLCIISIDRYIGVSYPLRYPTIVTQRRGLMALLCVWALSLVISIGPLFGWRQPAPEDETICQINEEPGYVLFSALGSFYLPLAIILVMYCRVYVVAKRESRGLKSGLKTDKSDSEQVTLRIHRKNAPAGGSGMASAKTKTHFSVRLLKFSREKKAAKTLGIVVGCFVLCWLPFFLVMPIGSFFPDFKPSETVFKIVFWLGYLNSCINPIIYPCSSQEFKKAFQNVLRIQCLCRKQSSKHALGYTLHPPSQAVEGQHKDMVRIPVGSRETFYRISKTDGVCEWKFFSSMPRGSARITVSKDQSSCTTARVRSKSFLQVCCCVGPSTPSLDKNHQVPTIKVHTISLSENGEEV

[3] = target: T3, Muscarinic acetylcholine receptor M2 (Homo sapiens, UniProt P08172); type: functional, cell-based
T3 sequence (P08172 whole entry): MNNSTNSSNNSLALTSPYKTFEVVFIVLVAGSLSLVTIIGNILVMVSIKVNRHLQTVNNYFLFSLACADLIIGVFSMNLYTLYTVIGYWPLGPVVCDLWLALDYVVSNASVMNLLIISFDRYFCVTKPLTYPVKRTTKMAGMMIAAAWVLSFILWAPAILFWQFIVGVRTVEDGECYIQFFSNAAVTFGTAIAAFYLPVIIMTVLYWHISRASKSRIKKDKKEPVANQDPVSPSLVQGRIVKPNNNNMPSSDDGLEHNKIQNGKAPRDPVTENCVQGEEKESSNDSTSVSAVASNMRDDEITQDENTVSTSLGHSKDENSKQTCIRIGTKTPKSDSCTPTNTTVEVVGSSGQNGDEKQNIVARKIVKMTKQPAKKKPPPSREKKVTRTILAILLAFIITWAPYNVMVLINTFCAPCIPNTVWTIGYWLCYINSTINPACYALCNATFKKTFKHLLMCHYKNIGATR

[4] = target: T4, 5-hydroxytryptamine receptor 2C (Homo sapiens, UniProt P28335)
T4 sequence (P28335 whole entry): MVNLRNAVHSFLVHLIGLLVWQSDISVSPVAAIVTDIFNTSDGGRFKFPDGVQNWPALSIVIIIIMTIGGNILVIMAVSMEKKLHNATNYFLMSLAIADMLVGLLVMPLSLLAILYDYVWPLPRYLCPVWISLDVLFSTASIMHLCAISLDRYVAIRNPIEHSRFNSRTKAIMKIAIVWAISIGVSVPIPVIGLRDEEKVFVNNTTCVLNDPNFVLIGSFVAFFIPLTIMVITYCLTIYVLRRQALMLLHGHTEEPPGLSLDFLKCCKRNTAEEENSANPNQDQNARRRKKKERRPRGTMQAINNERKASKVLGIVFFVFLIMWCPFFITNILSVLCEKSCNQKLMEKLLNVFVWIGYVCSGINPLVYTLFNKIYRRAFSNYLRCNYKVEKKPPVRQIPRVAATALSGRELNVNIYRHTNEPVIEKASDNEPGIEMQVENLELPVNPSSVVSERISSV

Histamine H2 receptor = Histamine H2 receptor (Homo sapiens, UniProt P25021); type: functional, cell-based
Chain of Histamine H2 receptor (P25021 whole entry): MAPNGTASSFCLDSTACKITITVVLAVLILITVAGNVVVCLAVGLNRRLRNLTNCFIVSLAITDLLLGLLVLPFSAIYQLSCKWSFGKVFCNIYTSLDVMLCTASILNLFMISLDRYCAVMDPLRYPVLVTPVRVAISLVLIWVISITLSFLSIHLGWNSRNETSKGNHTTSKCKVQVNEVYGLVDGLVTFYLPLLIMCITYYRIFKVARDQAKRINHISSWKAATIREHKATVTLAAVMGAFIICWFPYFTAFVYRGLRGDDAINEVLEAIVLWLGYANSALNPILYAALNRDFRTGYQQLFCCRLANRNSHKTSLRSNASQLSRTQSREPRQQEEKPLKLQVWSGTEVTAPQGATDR

[5] = target: Neuronal acetylcholine receptor subunit alpha-4 (Homo sapiens, UniProt P43681)
Chain of Neuronal acetylcholine receptor subunit alpha-4 (P43681 whole entry): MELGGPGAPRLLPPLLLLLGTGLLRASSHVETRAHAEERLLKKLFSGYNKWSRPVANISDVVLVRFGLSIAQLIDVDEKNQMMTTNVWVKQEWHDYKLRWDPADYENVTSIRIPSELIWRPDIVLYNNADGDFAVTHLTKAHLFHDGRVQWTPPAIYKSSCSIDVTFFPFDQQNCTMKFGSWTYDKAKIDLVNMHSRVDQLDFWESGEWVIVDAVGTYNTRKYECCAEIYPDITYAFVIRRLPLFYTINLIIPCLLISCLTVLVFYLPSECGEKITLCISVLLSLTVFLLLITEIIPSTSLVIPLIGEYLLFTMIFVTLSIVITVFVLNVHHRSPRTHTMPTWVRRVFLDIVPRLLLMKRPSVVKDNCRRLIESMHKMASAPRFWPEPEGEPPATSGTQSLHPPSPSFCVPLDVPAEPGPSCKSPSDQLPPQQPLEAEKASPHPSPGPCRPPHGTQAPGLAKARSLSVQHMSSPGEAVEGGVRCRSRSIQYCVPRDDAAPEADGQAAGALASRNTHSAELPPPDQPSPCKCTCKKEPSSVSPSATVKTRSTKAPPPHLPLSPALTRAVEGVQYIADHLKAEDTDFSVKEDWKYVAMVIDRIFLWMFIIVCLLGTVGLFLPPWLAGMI

[6] = target: Growth hormone secretagogue receptor type 1 (Homo sapiens, UniProt Q92847)
Chain of Growth hormone secretagogue receptor type 1 (Q92847 whole entry): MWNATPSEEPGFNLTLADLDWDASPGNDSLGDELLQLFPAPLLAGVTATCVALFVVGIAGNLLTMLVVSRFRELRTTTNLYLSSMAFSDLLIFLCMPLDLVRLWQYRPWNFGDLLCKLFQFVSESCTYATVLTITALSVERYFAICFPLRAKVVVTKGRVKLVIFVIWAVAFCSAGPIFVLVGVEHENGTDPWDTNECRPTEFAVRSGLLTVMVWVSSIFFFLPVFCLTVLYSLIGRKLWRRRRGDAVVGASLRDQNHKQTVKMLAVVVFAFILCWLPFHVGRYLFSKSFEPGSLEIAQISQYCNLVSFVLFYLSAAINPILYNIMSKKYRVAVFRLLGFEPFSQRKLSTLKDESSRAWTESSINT

[7] = target: T5, Muscarinic acetylcholine receptor M1 (Homo sapiens, UniProt P11229); type: functional
T5 sequence (P11229 whole entry): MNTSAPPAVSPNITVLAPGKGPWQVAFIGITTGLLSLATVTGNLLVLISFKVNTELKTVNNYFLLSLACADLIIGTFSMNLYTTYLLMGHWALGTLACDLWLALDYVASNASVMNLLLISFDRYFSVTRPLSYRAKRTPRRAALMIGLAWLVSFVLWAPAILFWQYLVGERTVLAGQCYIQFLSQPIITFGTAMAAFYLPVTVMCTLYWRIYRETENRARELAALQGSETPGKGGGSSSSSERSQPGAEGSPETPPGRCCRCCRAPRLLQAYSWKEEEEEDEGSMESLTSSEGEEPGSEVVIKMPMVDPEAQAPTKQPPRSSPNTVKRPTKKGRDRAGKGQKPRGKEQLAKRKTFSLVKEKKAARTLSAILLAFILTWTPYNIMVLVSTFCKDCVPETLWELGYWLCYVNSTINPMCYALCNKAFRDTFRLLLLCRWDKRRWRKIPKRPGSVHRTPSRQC

Endothelin-1 receptor = target: T6, Endothelin-1 receptor (Homo sapiens, UniProt P25101)
T6 sequence (P25101 whole entry): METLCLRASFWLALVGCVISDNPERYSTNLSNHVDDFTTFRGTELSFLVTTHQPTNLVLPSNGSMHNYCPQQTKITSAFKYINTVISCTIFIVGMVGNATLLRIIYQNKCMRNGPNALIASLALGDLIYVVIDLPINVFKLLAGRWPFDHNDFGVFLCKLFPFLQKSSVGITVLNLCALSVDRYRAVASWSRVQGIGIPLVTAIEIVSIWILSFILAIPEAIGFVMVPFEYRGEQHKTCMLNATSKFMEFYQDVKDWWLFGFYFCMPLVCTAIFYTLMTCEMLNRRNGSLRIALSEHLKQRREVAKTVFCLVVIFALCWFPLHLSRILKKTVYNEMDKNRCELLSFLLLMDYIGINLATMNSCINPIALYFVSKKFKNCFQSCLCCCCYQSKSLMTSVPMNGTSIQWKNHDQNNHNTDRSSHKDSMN
Note: assay procedure not described here.

| Compound | AC50 [1] [µM] | AC50 [2] [µM] | AC50 [3] [µM] | AC50 [4] [µM] | AC50 (Histamine H2 receptor) [µM] | AC50 [5] [µM] | AC50 [6] [µM] | AC50 [7] [µM] | AC50 (Endothelin-1 receptor) [µM] |
| --- | --- | --- | --- | --- | --- | --- | --- | --- | --- |
| N=C(N)NC(=O)Cc1c(Cl)cccc1Cl [GUANFACINE] | > 30 | 7.64 | > 30 | 10 | > 30 | > 10 | > 30 | – | – |
| CC(=O)N1CCN(c2ccc(OCC3COC(Cn4ccnc4)(c4ccc(Cl)cc4Cl)O3)cc2)CC1 (stereo unspecified) [KETOCONAZOLE] | 35.2 | > 10 | – | > 30 | > 10 | > 10 | > 10 | – | – |
| CN1CCC(=C2c3ccccc3CC(=O)c3sccc32)CC1 [KETOTIFEN] | > 10 | 10.4 | > 10 | 2.3 | > 10 | > 10 | > 10 | – | – |
| CC(=O)[C@@]1(O)CC[C@H]2[C@@H]3C[C@H](C)C4=CC(=O)C=C[C@]4(C)[C@@]3(F)[C@@H](O)C[C@@]21C [FLUOROMETHOLONE] | > 10 | > 10 | > 10 | > 30 | > 10 | > 10 | > 10 | – | – |
| CC1CC(OC(=O)C(O)c2ccccc2)CC(C)(C)C1 (stereo unspecified) [CYCLANDELATE] | > 30 | > 10 | > 10 | > 30 | > 10 | > 10 | > 10 | – | – |
| CN(Cc1ccc(C(C)(C)C)cc1)Cc1cccc2ccccc12 [BUTENAFINE] | > 10 | > 10 | > 10 | > 30 | > 10 | > 10 | > 10 | – | – |
| CC(C)(C)NCC(O)COc1cccc2c1CC(O)C(O)C2 (stereo unspecified) [NADOLOL] | > 10 | > 10 | > 10 | > 30 | > 10 | > 10 | > 10 | – | – |
| OCCN(CCO)c1nc(N2CCCCC2)c2nc(N(CCO)CCO)nc(N3CCCCC3)c2n1 [DIPYRIDAMOLE] | – | > 30 | 2 | > 30 | > 30 | – | > 30 | – | – |
| CCC1(C)CC(=O)NC1=O (stereo unspecified) [ETHOSUXIMIDE] | > 10 | > 30 | > 10 | > 30 | > 30 | > 10 | > 10 | – | – |
| CCCO[C@H]1[C@@H]([C@@H](COCc2ccc(Cl)cc2)OCc2ccc(Cl)cc2)OC(OCC)[C@@H]1O (stereo partly specified) [CLOBENOSIDE] | > 30 | – | > 30 | > 30 | > 30 | > 30 | > 30 | > 30 | > 30 |
| CC1=C(/C=C/C(C)=C/C=C/C(C)=C/C(=O)Oc2c(C)c(C)c3c(c2C)CCC(C)(CCCC(C)CCCC(C)CCCC(C)C)O3)C(C)(C)CCC1 (stereo unspecified) [TRETINOIN TOCOFERIL] | > 30 | – | > 30 | > 30 | > 30 | > 30 | > 30 | > 30 | > 30 |
| SITOSTEROLS | > 30 | – | > 30 | > 30 | > 30 | > 30 | > 30 | > 30 | > 30 |
| COc1ccc(-n2nc(C(N)=O)c3c2C(=O)N(c2ccc(N4CCCCC4=O)cc2)CC3)cc1 [APIXABAN] | 26 | – | > 30 | > 30 | > 30 | > 30 | > 30 | > 30 | > 30 |
| CCN1C(=O)NC(c2ccccc2)C1=O (stereo unspecified) [ETHOTOIN] | > 30 | – | > 30 | > 30 | > 30 | > 30 | > 30 | > 30 | > 30 |
| CC1=C(C(=O)O)N2C(=O)[C@@H](NC(=O)[C@H](N)C3=CCC=CC3)[C@H]2SC1 [CEPHRADINE] | > 30 | – | > 30 | > 30 | > 30 | > 30 | > 30 | > 30 | > 30 |
| C[C@H](N)C(=O)N[C@@H](CCC(N)=O)C(=O)O [ALANYL GLUTAMINE] (H-Ala-Gln-OH) | > 30 | – | > 30 | > 30 | > 30 | > 30 | > 30 | > 30 | > 30 |
| CO/N=C(\C(=O)N[C@@H]1C(=O)N2C(C(=O)O)=C(CSc3nc(C)c(CC(=O)O)s3)CS[C@H]12)c1csc(N)n1 [CEFODIZIME] | > 30 | – | > 30 | > 30 | > 30 | > 30 | > 30 | > 30 | > 30 |
| COC(=O)c1ccc2c(c1)NC(=O)/C2=C(\Nc1ccc(N(C)C(=O)CN2CCN(C)CC2)cc1)c1ccccc1 [NINTEDANIB] | > 30 | – | > 30 | 25 | > 30 | > 30 | > 30 | > 30 | > 30 |
| Nc1cc(N2CCCCC2)nc(N)[n+]1[O-] [MINOXIDIL] | – | > 10 | > 10 | > 30 | > 30 | > 10 | > 30 | – | – |
| CCC(=O)O[C@H](CC(=O)O)C[N+](C)(C)C [LEVOCARNITINE PROPIONATE] | > 30 | – | > 30 | > 30 | > 30 | > 30 | > 30 | > 30 | > 30 |
